Assays:
head, forehead and neck = test: Half-head wash with ethyl nicotinate shampoo against placebo shampoo (erythema meter, Cyclops pyrometer, sensations); format: in vivo, human
Experimental: EXPERIMENTS WITH ETHYL NICOTINATE ESTER IN SHAMPOO Five subjects washed one side of the head, forehead and neck with a shampoo the same as in Example 5 but containing a varying level of ethyl nicotinate for a period ranging from one to five minutes, whilst the other side was washed with a placebo shampoo of corresponding composition. The changes occurring on the various symmetrical sites around the head were assessed with the erythema meter and a "Cyclops" pyrometer in sequence. The readings were continued for between 45 minutes and one hour.

hair growth = test: Observation of hair growth with ethyl nicotinate in a shampoo; format: in vivo; conditions: included in a shampoo, in the absence of any other hair growth promoter

Compound: CCOC(=O)c1cccnc1 [EtNic, ethyl nicotinate]
- temperature (head, forehead and neck; active sites against placebo sites, Cyclops pyrometer, wash of one to five minutes): either rose or did not fall so low as the placebo sites
- redness (head, forehead and neck; active sites against placebo sites, erythema meter, wash of one to five minutes): increased the redness
- longer term sensations of a pleasant nature, duration after treatment (head, forehead and neck; crown of the head): up to two
- hair growth (hair growth): promote hair growth
